Drawing on patent US20240294522A1 (Lead Discovery Center GmbH, priority 2021, published 2024), this text covers IC50 for twelve compounds.

One experiment addresses T1, GRK2 (Homo sapiens, UniProt P25098).
T1 construct: purchased Thermo Scientific
T1 sequence (P25098 1-689): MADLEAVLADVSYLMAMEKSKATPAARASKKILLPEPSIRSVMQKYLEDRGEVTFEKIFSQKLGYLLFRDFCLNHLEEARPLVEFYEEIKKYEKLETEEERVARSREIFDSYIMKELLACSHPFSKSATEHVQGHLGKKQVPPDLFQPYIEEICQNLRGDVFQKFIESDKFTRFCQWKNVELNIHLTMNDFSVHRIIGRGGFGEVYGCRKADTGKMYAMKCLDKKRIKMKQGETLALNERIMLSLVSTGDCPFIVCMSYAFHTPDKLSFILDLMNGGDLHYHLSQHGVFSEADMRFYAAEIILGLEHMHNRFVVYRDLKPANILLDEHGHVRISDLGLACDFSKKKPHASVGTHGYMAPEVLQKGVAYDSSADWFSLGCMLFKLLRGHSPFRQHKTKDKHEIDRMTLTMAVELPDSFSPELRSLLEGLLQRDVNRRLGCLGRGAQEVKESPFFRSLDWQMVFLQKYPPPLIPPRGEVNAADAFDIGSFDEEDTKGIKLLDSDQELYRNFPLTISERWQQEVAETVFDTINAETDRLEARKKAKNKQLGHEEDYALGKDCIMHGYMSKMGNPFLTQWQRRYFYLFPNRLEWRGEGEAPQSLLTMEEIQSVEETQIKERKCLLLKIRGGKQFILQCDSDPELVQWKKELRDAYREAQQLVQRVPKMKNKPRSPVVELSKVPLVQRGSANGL
Kind of experiment: Lance Kinase Activity Assay, GRK2. The settings on record: biochemical Lance kinase activity assay; class symbols A-F; read-out: GRK2 LANCE Assay (IC-50). The procedure:
(§1) This protocol describes how the Lance Kinase Activity Assay was performed to determine IC50 values of compounds of general formula (I) against GRK5 and GRK2.
(§2) The principle behind this enzymatic assay is based upon the phosphorylation of the Ulight-peptide substrate. It is detected by using a specific EU-labeled anti-phospho peptide antibody. The binding of the Eu labeled anti-phospho peptide antibody to the phosphorylated ULight labeled peptide gives rise to a FRET-signal. Binding of an inhibitor to the kinase prevents phosphorylation of the Ulight-substrate, resulting in a loss of FRET. In tables 2 and 3 the relevant information for these two LANCE assays is summarized.
(§3) For every sample, 2 μl of assay buffer (50 mM HEPES pH 7,5, 10 mM MgCL2, 1 mM EGTA 0,01% Tween 20, 1% DMSO, 2 mM DTT) were transferred into a suitable assay plate (e.g. Corning #3673). Compounds were added in a concentration range from 10 μM to 0.0025 μM using an acoustic dispenser (Echo520 from Labcycte, San Jose, USA) equipped with Echo Dose Response software. After that 6 μl of kinase-substrate mix was added. Reaction was started by addition of 2 μl ATP working solution and mixed using a Bioshake 5000 microplate shaker (Q Instruments, Jena, Germany).
(§4) After 1 h incubation at room temperature the reaction was stopped with 10 μl detection mix containing the Eu-labeled phosphospecific antibody and 10 mM EDTA. After a second incubation period of 1 h at room temperature the FRET signal was measured at 340 nm excitation, 665 nm and 615 nm emission (for the ULight-substrate and Eu-AB, respectively) with an Envision microplate reader (Perkin Elmer, Waltham, MA, USA) with 50 μs delay and 300 μs integration time. IC50 values were determined from the sigmoidal dose response curves with the software Quattro Workflow (Quattro GmbH, Munich, Germany).
(§5) Inhibition is indicated as IC50 [nM] (“−”=not measured). Compounds having an activity designated as “A” provided an IC50≤50 nM; compounds having an activity designated as “B” provided an 50 nM<IC50≤100 nM; compounds having an activity designated as “C” provided an 100 nM<IC50≤500 nM; compounds having an activity designated as “D” provided an 500 nM<IC50≤1000 nM; compounds having an activity designated as “E” provided an 1000 nM<IC50≤10000 nM; and compounds having an activity designated as “F” provided an IC50>10000 nM.

A further experiment has as its target T2, GRK5 (Homo sapiens, UniProt P34947).
T2 construct: purchased Thermo Scientific
Description: Lance Kinase Activity Assay, GRK5. The settings on record: biochemical Lance kinase activity assay; class symbols A-F; read-out: GRK5 LANCE Assay (IC-50). As to the method:
as §1, §2, §3, §4, §5

T2 sequence (P34947 whole entry): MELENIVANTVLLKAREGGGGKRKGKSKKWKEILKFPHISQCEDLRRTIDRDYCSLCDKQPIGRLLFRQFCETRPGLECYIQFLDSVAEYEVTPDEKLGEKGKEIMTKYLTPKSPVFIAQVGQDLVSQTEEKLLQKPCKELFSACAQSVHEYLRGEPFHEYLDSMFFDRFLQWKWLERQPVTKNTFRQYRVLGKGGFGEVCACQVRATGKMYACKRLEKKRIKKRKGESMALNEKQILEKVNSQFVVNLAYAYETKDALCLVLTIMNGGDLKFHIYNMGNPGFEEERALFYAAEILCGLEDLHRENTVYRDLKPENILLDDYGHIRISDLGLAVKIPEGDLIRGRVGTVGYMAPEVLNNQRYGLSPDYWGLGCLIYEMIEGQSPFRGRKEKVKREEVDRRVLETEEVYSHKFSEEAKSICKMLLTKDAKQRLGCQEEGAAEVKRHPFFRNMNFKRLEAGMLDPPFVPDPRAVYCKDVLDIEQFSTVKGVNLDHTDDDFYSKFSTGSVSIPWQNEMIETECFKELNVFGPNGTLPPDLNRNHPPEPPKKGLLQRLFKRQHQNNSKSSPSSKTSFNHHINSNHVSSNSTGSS

For `COc1ccc([C@@H](C)NC(=O)/C(C#N)=C/c2c[nH]c3ncc(-c4cccnc4)cc23)cc1OC` [Example 130], the IC50 on GRK2 is above 10000 nM; at GRK5 it was at most 50 nM.

Turning to `COc1ccc([C@@H](C)NC(=O)/C=C/c2c[nH]c3ncc(-c4cccc(S(C)(=N)=O)c4)cc23)cc1OC` (stereo partly drawn) [Example 251, (E)-N-((R)-1-(3,4-dimethoxyphenyl)ethyl)-3-(5-(3-(S-methylsulfonimidoyl)phenyl)-1H-pyrrolo[2,3-b]pyridin-3-yl)acrylamide], the IC50 on GRK2 was 500 to 1000 nM; at GRK5, at most 50 nM.

Turning to `COc1ccc([C@@H](C)NC(=O)/C=C/c2c[nH]c3nccc(-c4ccc(OCCCN(C)C)cc4)c23)cc1OC` [Example 241, (R,E)-N-(1-(3,4-dimethoxyphenyl)ethyl)-3-(4-(4-(3-(dimethylamino)propoxy)phenyl)-1H-pyrrolo[2,3-b]pyridin-3-yl)acrylamide], the IC50 on GRK2 lay in the range of 1000 to 10000 nM; at GRK5, 50 to 100 nM.

Turning to `N#C/C(=C\c1c[nH]c2ncccc12)C(=O)N[C@H](CCO)c1ccccc1` [Example 40, (R,E)-2-cyano-N-(3-hydroxy-1-phenylpropyl)-3-(1H-pyrrolo[2,3-b]pyridin-3-yl)acrylamide], the IC50 at GRK2 and at GRK5 was 100 to 500 nM throughout.

As for `COc1ccc([C@@H](C)NC(=O)/C(C#N)=C/c2c[nH]c3ncc(-c4cnn(C)c4)c(C)c23)cc1OC` [Example 99, (R,E)-2-cyano-N-(1-(3,4-dimethoxyphenyl)ethyl)-3-(4-methyl-5-(1-methyl-1H-pyrazol-4-yl)-1H-pyrrolo[2,3-b]pyridin-3-yl)acrylamide], the IC50 on GRK2 is above 10000 nM; on GRK5, 100 to 500 nM.

Take `C[C@@H](NC(=O)/C(C#N)=C/c1c[nH]c2ncccc12)c1cccc(C(F)(F)F)c1` [Example 18, (R,E)-2-cyano-3-(1H-pyrrolo[2,3-b]pyridin-3-yl)-N-(1-(3-(trifluoromethyl)phenyl)ethyl)acrylamide]: the IC50 on GRK2 lay in the range of 500 to 1000 nM; at GRK5, 100 to 500 nM.

In the case of `CC(NC(=O)/C=C/c1c[nH]c2ncccc12)c1ccc(F)cc1` (stereo not drawn) [Example 10, (E)-N-(1-(4-fluorophenyl)ethyl)-3-(1H-pyrrolo[2,3-b]pyridin-3-yl)acrylamide], the IC50 at GRK2 and on GRK5 was 1000 to 10000 nM throughout.

As for `COc1ccc([C@@H](C)NC(=O)/C=C/c2c[nH]c3ncc(-c4cccc(N(C)C)c4)cc23)cc1OC` [Example 195, (R,E)-N-(1-(3,4-dimethoxyphenyl)ethyl)-3-(5-(3-(dimethylamino)phenyl)-1H-pyrrolo[2,3-b]pyridin-3-yl)acrylamide], the values for the IC50 at GRK2 and on GRK5 were above 10000 nM and at most 50 nM, respectively.

Turning to `N#C/C(=C\c1c[nH]c2ncccc12)C(=O)NCc1ccc(Cl)cc1` [Example 58, (E)-N-(4-chlorobenzyl)-2-cyano-3-(1H-pyrrolo[2,3-b]pyridin-3-yl)acrylamide], the IC50 on GRK2 was 1000 to 10000 nM; at GRK5, 100 to 500 nM.

For the compound `COc1ccc([C@@H](C)NC(=O)/C(C#N)=C/c2c[nH]c3ncc(O[C@H]4CCOC4)cc23)cc1OC` [Example 108, (E)-2-cyano-N-((R)-1-(3,4-dimethoxyphenyl)ethyl)-3-(5-(((S)-tetrahydrofuran-3-yl)oxy)-1H-pyrrolo[2,3-b]pyridin-3-yl)acrylamide], the values for the IC50 at GRK2 and on GRK5 were 1000 to 10000 nM and at most 50 nM, respectively.

In the case of `C[C@@H](NC(=O)/C(C#N)=C/c1c[nH]c2ncc(Br)cc12)c1ccc(F)cc1` [Example 79, (R,E)-3-(5-bromo-1H-pyrrolo[2,3-b]pyridin-3-yl)-2-cyano-N-(1-(4-fluorophenyl)ethyl)acrylamide], the figures for the IC50 on GRK2 and on GRK5 were 1000 to 10000 nM and 100 to 500 nM, respectively.

For `COc1ccc([C@@H](C)NC(=O)/C(C#N)=C/c2c[nH]c3ncc(-c4ccccc4)cc23)cc1OC` [Example 116], the IC50 is above 10000 nM at GRK2 and 50 to 100 nM on GRK5.
